In article PMC9743095 (Journal of Medicinal Chemistry, 2022):
Like-named read-outs stand apart in the source and are kept apart here.

Legend:
Assay type in all cases: cell-based
[1] = system: CRL cell line; test: ATP viability assay; details: for CC50: Homo sapiens, read-out: LC50
Protocol: HL-60 (ATCC CCL-240), K562 (ATCC CCL-243), CCRF-CEM (ATCC CRM-CCL-119), and RL (ATCC CRL-2261) leukemia cell lines were obtained from the American Type Culture Collection (ATCC), Middlesex. HL-60 and K562 cell lines are deoxynucleotidyl transferase-negative (TdT^–ve), whereas CCRF-CEM cell line is TdT^+ve. They were cultured in RPMI-1640 medium (Sigma-Aldrich, U.K.), which were supplemented with 10% fetal bovine serum (FBS) (PAA Laboratories), 1% amphotericin B (5.5 mL), and 1% penicillin/streptomycin (5.5 mL) (PAA Laboratories) and grown in flasks at 37 °C in an incubator with 5% CO2. For the studies with inhibitors, the cells were treated with 10 μM nitrobenzylthioinosine (NBTI, hENT inhibitor) or 1 μM EHNA (EHNA hydrochloride) or A-134974 (A-134974 dihydrochloride hydrate) and left for 5 min before adding the drug. The cells were then incubated for 2 h at 37 °C with 5% CO2.
The amount of ATP was used as a measurement of cell number and cell viability. ATP ViaLightTM plus assay kit (Lonza: Product No. LT07-121) to detect ATP in cells treated in luminescence compatible 96-well plates (initial concentration of cells was 1 × 10^4 cells/well) with Cordycepin and ProTides at concentrations of 0, 0.1, 0.5, 1, 5, and 10 μM, followed by incubation for 72 h at 37 °C in an incubator with 5% CO2. For inhibitor studies, 10 μM NBTI or 1 μM EHNA or A-134974 was added and left for 5 min before adding the drugs. After incubation, 50 μL of cell lysis reagent was added to the 96-well plates to release the intracellular ATP, followed by 100 μL of ATP monitoring reagent (AMR). The luminescent values of each well were determined using FLUOstar OPTIMA microplate reader (BMG Labtech), which converted ATP into light using luciferase enzyme. Therefore, the amount of luminescence produced was directly proportional to the amount of ATP.

[2] = system: MV4-11; test: cells
Protocol: (§1) The assay was contracted and carried out by WuXi AppTec (Shanghai) Co., Ltd. The tumor cell lines CCRF-CEM, HL-60, KG-1, MOLT-4, K562, MV4-11, THP-1, HEL92.1.7, NCI-H929, RPMI-8226, Jurkat, Z138, RL, HS445, HepG2, MCF-7, Bx-PC-3, HT29, MIA PaCa-2, and SW620 were seeded at cell densities of […] 10^3 cells/well in a 96-well plate the day before drug incubation. Then, the plates were incubated for 72 h with the different concentrations of compound to be tested. After the incubation period, 50 μL of MTS was added and the tumor cells were incubated for 4 h at 37 °C. The data were read and collected by a Spectra Max 340 absorbance microplate reader. The compounds were tested in duplicate with nine serial concentrations (3.16-fold titrations with 198 μM as the highest concentration), and the data were analyzed by XLfit software.

[3] = system: HT29; test: cells
Protocol: as §1

[4] = system: HL-60; test: cells; details: Homo sapiens
Protocol: as §1

[5] = system: THP-1; test: cells
Protocol: as §1

[6] = system: SW620; test: cells
Protocol: as §1

[7] = system: NCI-H929; test: cells
Protocol: as §1

[8] = system: RL; test: cells
Protocol: as §1

[9] = system: K562; test: cells; details: Homo sapiens
Protocol: as §1

[10] = system: BxPC-3; test: cells
Protocol: as §1

[11] = system: CCRF-CEM; test: cells; details: Homo sapiens, 72 h
Protocol: as §1

[12] = system: HS445; test: cells
Protocol: as §1

[13] = system: Z138; test: cells
Protocol: as §1

[14] = system: HepG2; test: cells; details: Homo sapiens
Protocol: as §1

[15] = system: MCF-7; test: cells; details: Homo sapiens, MCF7, 72 h
Protocol: as §1

[16] = system: MIA PaCa-2; test: cells
Protocol: as §1

[17] = system: HEL92.1.7; test: cells
Protocol: as §1

[18] = system: Jurkat; test: cells; details: Jurkat
Protocol: as §1

[19] = system: RPMI-8226; test: cells
Protocol: as §1

[20] = system: MOLT-4; test: cells; details: Homo sapiens
Protocol: as §1

[21] = system: KG-1; test: cells; details: Homo sapiens, KG-1, 72 h, read-out: LC50
Protocol: as §1

[22] = Homo sapiens, 72 h, read-out: LC50
[23] = maximum inhibitory effect over concentration range

**Q.** For Nc1ncnc2c1ncn2[C@@H]1O[C@H](CO)C[C@H]1O [3′-dA, 3′-Deoxyadenosine, reference compound], which “improvement of LC50 on inhibition of ADA with EHNA” value ([1]; CRL) is on record?
**A.** The value was 2 fold.

**Q.** What about the CC50 ([1]; 72 h) of the same molecule?
**A.** Its CC50 is 24.5 µM.

**Q.** What about the CC50 [1] of the same molecule?
**A.** Its CC50 is 7.3 µM.

**Q.** What about the CC50 ([2]; Homo sapiens, MV4-11, 72 h, read-out: LC50) of the same molecule?
**A.** Its CC50 is over 198 µM.

**Q.** And the MI% ([2]; MV4-11, maximum inhibitory effect over concentration range)?
**A.** The MI% was 1%.

**Q.** And the MI% ([3]; HT29, maximum inhibitory effect over concentration range)?
**A.** The MI% was 44%.

**Q.** And the CC50 ([3]; Homo sapiens, HT-29, 72 h, read-out: lC50)?
**A.** The CC50 was over 198 µM.

**Q.** What about the Emax ([4]; 72 h, HL-60, maximum inhibitory effect over concentration range, read-out: MI%) of the same molecule?
**A.** Its Emax is 88%.

**Q.** What about the CC50 ([4]; HL-60, 72 h, read-out: LC50) of the same molecule?
**A.** Its CC50 is 76.8 µM.

**Q.** What about the CC50 ([5]; Homo sapiens, THP-1, 72 h, read-out: LC50) of the same molecule?
**A.** Its CC50 is over 198 µM.

**Q.** What about the MI% ([5]; THP-1, maximum inhibitory effect over concentration range) of the same molecule?
**A.** Its MI% is “–3%”.

**Q.** And the CC50 ([6]; Homo sapiens, SW-620, 72 h, read-out: LC50)?
**A.** Its CC50 is over 198 µM.

**Q.** What about the MI% ([6]; SW620, maximum inhibitory effect over concentration range) of the same molecule?
**A.** Its MI% is 10%.

**Q.** And the CC50 ([7]; Homo sapiens, NCI-H929, 72 h, read-out: LC50)?
**A.** Its CC50 is over 198 µM.

**Q.** And the MI% ([7]; NCI-H929, maximum inhibitory effect over concentration range)?
**A.** Its MI% is 24%.

**Q.** And the CC50 [8, 22]?
**A.** Its CC50 is over 198 µM.

**Q.** What about the MI% [8, 23] of the same molecule?
**A.** The MI% was 17%.

**Q.** And the Emax ([9]; 72 h, K562, maximum inhibitory effect over concentration range, read-out: MI%)?
**A.** The Emax was 88%.

**Q.** And the CC50 ([9]; K562, 72 h, read-out: LC50)?
**A.** The CC50 was 59.3 µM.

**Q.** And the MI% ([10]; BxPC-3, maximum inhibitory effect over concentration range)?
**A.** Its MI% is 22%.

**Q.** What about the CC50 ([10]; Homo sapiens, BXPC-3, 72 h, read-out: LC50) of the same molecule?
**A.** The CC50 was over 198 µM.

**Q.** And the Emax ([11]; maximum inhibitory effect over concentration range, read-out: MI%)?
**A.** Its Emax is 12%.

**Q.** What about the CC50 ([11]; read-out: LC50) of the same molecule?
**A.** The CC50 was over 198 µM.

**Q.** What about the MI% ([12]; HS445, maximum inhibitory effect over concentration range) of the same molecule?
**A.** The MI% was 2%.

**Q.** What about the CC50 ([12]; Homo sapiens, Hs 445, 72 h, read-out: LC50) of the same molecule?
**A.** Its CC50 is over 198 µM.

**Q.** What about the CC50 ([13]; Homo sapiens, Z-138, 72 h, read-out: LC50) of the same molecule?
**A.** The CC50 was 12.2 µM.

**Q.** What about the MI% ([13]; Z138, maximum inhibitory effect over concentration range) of the same molecule?
**A.** The MI% was 95%.

**Q.** What about the Emax ([14]; 72 h, HepG2, maximum inhibitory effect over concentration range, read-out: MI%) of the same molecule?
**A.** Its Emax is 66%.

**Q.** And the CC50 ([14]; HepG2, 72 h, read-out: LC50)?
**A.** The CC50 was 142 µM.

**Q.** And the CC50 ([15]; read-out: LC50)?
**A.** The CC50 was 34.2 µM.

**Q.** What about the Emax ([15]; MCF-7, maximum inhibitory effect over concentration range, read-out: MI%) of the same molecule?
**A.** The Emax was 78%.

**Q.** What about the CC50 ([16]; Homo sapiens, MIA PaCa-2, 72 h, read-out: LC50) of the same molecule?
**A.** The CC50 was over 198 µM.

**Q.** And the MI% ([16]; MIA PaCa-2, maximum inhibitory effect over concentration range)?
**A.** Its MI% is 35%.

**Q.** And the MI% ([17]; HEL92.1.7, maximum inhibitory effect over concentration range)?
**A.** Its MI% is 88%.

**Q.** What about the CC50 ([17]; Homo sapiens, HEL 92.1.7, 72 h, read-out: LC50) of the same molecule?
**A.** Its CC50 is 68.9 µM.

**Q.** And the CC50 [18, 22]?
**A.** Its CC50 is over 198 µM.

**Q.** What about the MI% [18, 23] of the same molecule?
**A.** Its MI% is 20%.

**Q.** What about the CC50 ([19]; Homo sapiens, RPMI-8226, 72 h, read-out: LC50) of the same molecule?
**A.** Its CC50 is over 198 µM.

**Q.** And the MI% ([19]; RPMI-8226, maximum inhibitory effect over concentration range)?
**A.** Its MI% is 1%.

**Q.** And the Emax ([20]; 72 h, MOLT-4, maximum inhibitory effect over concentration range, read-out: MI%)?
**A.** The Emax was 52%.

**Q.** And the CC50 ([20]; MOLT-4, 72 h, read-out: LC50)?
**A.** Its CC50 is 152 µM.

**Q.** What about the CC50 [21] of the same molecule?
**A.** Its CC50 is 70.8 µM.
